Reference: ChEMBL document CHEMBL5034035, “Discovery of an Oxycyclohexyl Acid Lysophosphatidic Acid Receptor 1 (LPA1) Antagonist BMS-986278 for the Treatment of Pulmonary Fibrotic Diseases” (J Med Chem, 2021)
pIC50: −log10 of the molar value. ≈ marks a conversion by molar mass, not a printed value.

What was measured:
Cytochrome P450 1A2 = biological target: T1, Cytochrome P450 1A2 (Homo sapiens, UniProt P05177); test: Inhibition of CYP1A2 (unknown origin); format: ADME
T1 sequence (P05177 whole entry): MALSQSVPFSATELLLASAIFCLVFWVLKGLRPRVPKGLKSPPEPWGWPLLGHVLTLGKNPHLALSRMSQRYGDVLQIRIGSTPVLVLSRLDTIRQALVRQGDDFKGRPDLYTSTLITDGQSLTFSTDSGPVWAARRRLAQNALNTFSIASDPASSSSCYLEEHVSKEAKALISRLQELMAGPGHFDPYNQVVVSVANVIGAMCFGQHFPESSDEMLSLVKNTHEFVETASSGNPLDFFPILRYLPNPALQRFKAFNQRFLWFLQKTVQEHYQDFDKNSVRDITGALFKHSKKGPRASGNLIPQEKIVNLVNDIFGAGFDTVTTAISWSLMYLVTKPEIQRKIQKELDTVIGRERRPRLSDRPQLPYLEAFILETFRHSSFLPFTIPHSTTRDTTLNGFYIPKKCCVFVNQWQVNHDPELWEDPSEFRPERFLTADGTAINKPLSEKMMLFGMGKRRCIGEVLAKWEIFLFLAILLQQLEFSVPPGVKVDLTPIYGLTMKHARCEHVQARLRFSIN

[1] = Half life in rat liver microsomes at 10 uM measured after 120 mins; format: ADME, Microsome
[2] = biological target: T2, Solute carrier organic anion transporter family member 1B1 (Homo sapiens, UniProt Q9Y6L6); test: Inhibition of OATP1B1 (unknown origin); format: ADME
T2 sequence (Q9Y6L6 whole entry): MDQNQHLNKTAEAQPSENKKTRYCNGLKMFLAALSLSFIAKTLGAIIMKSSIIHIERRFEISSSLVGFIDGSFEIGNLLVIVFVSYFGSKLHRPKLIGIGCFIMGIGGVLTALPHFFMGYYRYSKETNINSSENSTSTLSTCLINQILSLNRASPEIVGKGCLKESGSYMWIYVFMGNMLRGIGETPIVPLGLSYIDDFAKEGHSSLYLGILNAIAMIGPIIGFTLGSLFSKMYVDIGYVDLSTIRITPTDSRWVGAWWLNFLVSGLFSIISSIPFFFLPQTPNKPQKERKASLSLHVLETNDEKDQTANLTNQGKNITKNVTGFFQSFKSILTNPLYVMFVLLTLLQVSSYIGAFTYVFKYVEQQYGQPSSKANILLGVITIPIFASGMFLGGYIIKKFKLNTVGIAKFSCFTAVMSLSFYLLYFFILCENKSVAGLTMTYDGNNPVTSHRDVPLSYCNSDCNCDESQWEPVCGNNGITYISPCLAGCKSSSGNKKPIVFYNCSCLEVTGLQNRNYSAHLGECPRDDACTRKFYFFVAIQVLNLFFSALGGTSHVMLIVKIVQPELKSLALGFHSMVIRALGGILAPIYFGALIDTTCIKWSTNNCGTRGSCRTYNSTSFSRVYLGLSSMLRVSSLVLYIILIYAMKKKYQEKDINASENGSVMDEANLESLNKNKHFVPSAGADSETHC

Bile salt export pump = Bile salt export pump (Homo sapiens, UniProt O95342); test: Inhibition of BSEP (unknown origin); format: ADME
Chain of Bile salt export pump (O95342 whole entry): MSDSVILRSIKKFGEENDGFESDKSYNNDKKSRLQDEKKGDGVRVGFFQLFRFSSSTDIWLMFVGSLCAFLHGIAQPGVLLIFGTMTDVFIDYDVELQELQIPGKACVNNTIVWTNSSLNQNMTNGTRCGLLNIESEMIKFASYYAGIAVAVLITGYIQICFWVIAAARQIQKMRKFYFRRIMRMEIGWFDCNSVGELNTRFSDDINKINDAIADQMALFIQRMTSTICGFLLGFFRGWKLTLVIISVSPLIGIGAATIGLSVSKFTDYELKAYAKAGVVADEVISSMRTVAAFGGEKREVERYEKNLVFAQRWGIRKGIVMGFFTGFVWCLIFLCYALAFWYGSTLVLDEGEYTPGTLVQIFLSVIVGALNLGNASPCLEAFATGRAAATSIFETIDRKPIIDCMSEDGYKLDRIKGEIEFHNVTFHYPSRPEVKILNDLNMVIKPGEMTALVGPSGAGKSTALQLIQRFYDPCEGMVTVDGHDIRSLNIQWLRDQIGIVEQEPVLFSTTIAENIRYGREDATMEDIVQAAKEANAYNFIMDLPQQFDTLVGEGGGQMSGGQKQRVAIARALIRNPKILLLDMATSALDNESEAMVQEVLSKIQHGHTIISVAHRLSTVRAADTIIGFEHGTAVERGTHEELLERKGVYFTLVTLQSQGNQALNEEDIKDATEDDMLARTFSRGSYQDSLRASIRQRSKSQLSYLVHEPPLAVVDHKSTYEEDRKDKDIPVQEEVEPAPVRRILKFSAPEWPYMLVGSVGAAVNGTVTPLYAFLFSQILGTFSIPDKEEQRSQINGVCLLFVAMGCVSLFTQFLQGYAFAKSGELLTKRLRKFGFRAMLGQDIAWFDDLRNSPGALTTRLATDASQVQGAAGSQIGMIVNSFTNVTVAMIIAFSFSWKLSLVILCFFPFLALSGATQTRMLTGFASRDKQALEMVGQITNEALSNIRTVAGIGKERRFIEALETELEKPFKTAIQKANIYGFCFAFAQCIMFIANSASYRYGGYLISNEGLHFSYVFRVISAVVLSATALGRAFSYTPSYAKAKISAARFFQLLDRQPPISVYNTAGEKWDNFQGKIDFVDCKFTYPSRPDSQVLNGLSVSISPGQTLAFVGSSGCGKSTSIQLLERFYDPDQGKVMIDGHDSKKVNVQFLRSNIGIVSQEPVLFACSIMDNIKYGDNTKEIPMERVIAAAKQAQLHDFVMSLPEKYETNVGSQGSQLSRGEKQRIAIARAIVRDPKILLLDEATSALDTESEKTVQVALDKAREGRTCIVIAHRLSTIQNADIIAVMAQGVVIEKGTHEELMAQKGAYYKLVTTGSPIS

[3] = Protein binding in Sprague-Dawley rat plasma assessed as free fraction at 3 mg/kg, po or 1 mg/kg, iv measured up to 24 hrs by LC-MS/MS analysis; format: ADME, organism-based
[4] = Aqueous solubility of compound at pH 1; format: physicochemical
[5] = Lipophilicity, log D of compound at pH 6.5 by shake-flask method; format: physicochemical; conditions: buffer
[6] = Half life in human liver microsomes at 10 uM measured after 120 mins; format: ADME, Microsome
Cytochrome P450 2C8 = biological target: T3, Cytochrome P450 2C8 (Homo sapiens, UniProt P10632); test: Inhibition of CYP2C8 (unknown origin); format: ADME
T3 sequence (P10632 whole entry): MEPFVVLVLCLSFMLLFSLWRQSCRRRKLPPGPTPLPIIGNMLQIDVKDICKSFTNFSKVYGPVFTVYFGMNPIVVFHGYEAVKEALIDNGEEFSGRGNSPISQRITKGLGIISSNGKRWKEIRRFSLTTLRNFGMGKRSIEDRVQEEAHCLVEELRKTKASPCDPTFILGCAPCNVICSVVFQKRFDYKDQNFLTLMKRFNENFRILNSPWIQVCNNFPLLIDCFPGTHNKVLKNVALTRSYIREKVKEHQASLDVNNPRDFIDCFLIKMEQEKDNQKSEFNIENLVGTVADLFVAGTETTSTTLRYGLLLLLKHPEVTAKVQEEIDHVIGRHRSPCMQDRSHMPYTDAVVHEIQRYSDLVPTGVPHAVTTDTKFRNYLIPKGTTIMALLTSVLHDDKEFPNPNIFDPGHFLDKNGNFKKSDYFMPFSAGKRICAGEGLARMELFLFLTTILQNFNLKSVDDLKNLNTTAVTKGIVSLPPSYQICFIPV

Cytochrome P450 2B6 = biological target: T4, Cytochrome P450 2B6 (Homo sapiens, UniProt P20813); test: Inhibition of CYP2B6 (unknown origin); format: ADME
T4 sequence (P20813 whole entry): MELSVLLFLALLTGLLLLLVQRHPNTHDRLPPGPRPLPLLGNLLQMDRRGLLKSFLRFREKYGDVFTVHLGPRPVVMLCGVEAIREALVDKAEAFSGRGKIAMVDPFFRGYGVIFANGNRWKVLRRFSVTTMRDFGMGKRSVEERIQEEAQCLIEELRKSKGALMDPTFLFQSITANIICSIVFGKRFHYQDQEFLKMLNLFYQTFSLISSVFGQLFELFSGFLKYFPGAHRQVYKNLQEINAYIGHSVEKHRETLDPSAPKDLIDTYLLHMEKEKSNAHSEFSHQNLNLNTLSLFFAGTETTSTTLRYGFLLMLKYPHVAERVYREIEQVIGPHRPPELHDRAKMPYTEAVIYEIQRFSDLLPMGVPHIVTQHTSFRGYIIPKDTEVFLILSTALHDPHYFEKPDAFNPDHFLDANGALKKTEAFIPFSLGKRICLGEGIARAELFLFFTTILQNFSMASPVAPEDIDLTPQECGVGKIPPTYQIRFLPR

Cytochrome P450 2D6 = Cytochrome P450 2D6 (Homo sapiens, UniProt P10635); test: Inhibition of CYP2D6 (unknown origin); format: ADME
Chain of Cytochrome P450 2D6 (P10635 whole entry): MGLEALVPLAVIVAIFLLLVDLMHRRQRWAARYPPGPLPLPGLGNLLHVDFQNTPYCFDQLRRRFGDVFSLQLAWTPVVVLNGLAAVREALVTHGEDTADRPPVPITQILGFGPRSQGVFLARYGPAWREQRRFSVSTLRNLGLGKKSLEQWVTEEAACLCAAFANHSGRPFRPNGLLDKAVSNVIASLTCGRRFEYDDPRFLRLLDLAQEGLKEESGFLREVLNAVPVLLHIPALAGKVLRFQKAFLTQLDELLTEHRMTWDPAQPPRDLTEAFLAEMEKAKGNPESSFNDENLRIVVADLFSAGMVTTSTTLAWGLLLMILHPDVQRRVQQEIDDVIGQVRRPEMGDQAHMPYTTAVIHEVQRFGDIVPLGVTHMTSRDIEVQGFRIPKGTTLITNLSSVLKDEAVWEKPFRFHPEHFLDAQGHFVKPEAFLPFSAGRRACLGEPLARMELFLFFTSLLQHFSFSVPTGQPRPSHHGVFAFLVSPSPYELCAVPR

Cytochrome P450 3A4 = Cytochrome P450 3A4 (Homo sapiens, UniProt P08684); test: Inhibition of CYP3A4 (unknown origin); format: ADME
Chain of Cytochrome P450 3A4 (P08684 whole entry): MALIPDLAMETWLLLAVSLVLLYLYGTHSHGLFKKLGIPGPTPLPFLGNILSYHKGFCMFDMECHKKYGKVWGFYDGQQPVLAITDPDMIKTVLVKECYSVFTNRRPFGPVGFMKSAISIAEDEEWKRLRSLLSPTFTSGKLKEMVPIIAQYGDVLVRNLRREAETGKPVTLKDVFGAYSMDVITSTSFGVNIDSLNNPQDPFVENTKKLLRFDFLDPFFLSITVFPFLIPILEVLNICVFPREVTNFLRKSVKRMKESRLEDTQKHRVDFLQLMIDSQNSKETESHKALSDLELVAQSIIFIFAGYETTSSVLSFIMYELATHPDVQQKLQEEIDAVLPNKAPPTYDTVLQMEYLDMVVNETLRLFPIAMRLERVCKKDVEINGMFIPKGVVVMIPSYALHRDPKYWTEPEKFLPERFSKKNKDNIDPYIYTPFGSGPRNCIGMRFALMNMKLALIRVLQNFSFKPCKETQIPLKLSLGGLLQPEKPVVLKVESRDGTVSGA

[7] = Protein binding in CD-1 mouse plasma assessed as free fraction at 3 mg/kg, po or 1 mg/kg, iv measured up to 24 hrs by LC-MS/MS analysis; format: ADME, organism-based
Cytochrome P450 2C9 = Cytochrome P450 2C9 (Homo sapiens, UniProt P11712); test: Inhibition of CYP2C9 (unknown origin); format: ADME
Chain of Cytochrome P450 2C9 (P11712 whole entry): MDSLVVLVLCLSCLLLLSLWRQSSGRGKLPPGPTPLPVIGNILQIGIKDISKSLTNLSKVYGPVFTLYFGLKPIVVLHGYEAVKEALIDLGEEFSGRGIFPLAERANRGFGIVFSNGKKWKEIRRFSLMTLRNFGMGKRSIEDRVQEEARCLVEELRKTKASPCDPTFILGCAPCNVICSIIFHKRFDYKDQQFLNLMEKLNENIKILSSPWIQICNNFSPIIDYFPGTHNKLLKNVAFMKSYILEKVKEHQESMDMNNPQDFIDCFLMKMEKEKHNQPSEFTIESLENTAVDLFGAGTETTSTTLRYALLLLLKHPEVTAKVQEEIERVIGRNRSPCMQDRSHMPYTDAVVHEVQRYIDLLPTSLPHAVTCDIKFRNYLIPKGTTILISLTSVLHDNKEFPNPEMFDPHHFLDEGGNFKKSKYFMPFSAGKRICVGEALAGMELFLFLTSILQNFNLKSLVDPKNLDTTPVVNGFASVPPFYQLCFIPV

[8] = Half life in mouse liver microsomes at 10 uM measured after 120 mins; format: ADME, Microsome
CYP3A4 = CYP3A4 (Homo sapiens, UniProt P08684); test: Induction of CYP3A4 in human hepatocytes; format: ADME, cell-based, Hepatocyte
Chain of CYP3A4 (P08684 whole entry): as the sequence (P08684 whole entry) above

[9] = biological target: ATP-binding cassette sub-family C member 3 (Homo sapiens, UniProt O15438); test: Inhibition of MRP3 (unknown origin)
Chain of ATP-binding cassette sub-family C member 3 (O15438 whole entry): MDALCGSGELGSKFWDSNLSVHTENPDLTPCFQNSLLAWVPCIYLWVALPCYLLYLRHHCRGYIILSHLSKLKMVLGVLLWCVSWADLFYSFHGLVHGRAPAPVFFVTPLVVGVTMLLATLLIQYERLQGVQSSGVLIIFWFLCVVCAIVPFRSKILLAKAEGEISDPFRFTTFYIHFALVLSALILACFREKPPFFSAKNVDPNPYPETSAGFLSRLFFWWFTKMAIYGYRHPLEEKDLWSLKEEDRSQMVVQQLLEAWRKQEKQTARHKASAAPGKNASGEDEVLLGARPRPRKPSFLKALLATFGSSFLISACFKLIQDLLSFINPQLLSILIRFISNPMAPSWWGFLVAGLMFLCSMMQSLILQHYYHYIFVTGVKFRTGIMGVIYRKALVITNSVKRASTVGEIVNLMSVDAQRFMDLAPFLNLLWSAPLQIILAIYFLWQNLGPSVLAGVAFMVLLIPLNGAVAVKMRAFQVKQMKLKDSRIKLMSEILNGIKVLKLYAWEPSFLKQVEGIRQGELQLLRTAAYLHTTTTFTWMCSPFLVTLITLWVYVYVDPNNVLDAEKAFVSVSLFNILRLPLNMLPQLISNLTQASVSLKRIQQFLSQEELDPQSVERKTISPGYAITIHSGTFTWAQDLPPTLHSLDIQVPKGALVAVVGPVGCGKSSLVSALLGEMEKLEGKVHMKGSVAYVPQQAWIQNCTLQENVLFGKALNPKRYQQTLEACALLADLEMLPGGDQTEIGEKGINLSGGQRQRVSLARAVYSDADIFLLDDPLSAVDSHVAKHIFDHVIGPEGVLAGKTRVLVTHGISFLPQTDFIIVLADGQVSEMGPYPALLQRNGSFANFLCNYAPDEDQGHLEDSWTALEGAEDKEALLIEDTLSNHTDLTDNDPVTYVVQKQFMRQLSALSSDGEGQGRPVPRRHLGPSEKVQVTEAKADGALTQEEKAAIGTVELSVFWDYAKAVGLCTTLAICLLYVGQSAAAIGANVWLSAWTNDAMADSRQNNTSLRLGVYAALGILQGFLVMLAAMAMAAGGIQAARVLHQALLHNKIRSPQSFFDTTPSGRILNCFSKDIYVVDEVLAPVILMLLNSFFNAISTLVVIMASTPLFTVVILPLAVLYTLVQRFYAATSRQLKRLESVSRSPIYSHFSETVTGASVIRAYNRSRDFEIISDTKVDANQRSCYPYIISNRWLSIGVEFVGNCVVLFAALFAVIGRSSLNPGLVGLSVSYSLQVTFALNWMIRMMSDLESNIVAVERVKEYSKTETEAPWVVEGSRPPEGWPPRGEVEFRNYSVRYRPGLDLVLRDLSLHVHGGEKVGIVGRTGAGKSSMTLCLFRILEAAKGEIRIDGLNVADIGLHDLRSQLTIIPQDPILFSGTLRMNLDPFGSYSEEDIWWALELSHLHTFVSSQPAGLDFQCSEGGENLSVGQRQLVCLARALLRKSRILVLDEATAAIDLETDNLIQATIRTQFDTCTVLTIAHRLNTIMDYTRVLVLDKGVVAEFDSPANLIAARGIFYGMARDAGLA

CYP2C9 = CYP2C9 (Homo sapiens, UniProt P11712); test: Induction of CYP2C9 in human hepatocytes; format: ADME, cell-based, Hepatocyte
Chain of CYP2C9 (P11712 whole entry): as the sequence (P11712 whole entry) above

pIC50 (Cytochrome P450 1A2)	half-life at 10 µM [1]	pIC50 [2]	fraction unbound at 24 h [3]	solubility [4]	logD [5]	half-life at 10 µM [6]	pIC50 (Cytochrome P450 2C8)	pIC50 (Cytochrome P450 2B6)	pIC50 (Cytochrome P450 2D6)	pIC50 (Cytochrome P450 3A4)	fraction unbound at 24 h [7]	pIC50 (Cytochrome P450 2C9)	half-life at 10 µM [8]	pIC50 (CYP3A4)	pIC50 [9]	pIC50 (CYP2C9)	SMILES	pIC50 (Bile salt export pump)
< 4.40	> 2 h	5.82	0.053	389 µg/mL (≈ 825 µM)	2.3	> 2 h	< 4.40	< 4.40	< 4.40	< 4.40	0.1	< 4.40	> 2 h	< 4.30	4.62	< 4.30	Cc1nc(-c2nnn(C)c2COC(=O)N(C)CC2CCC2)ccc1O[C@H]1CCC[C@H](C(=O)O)C1	4.71
< 4.40	> 2 h	4.44	0.126	2990 µg/mL (≈ 6710 µM)	1.95	> 2 h	< 4.40	< 4.40	< 4.40	< 4.40	0.314	< 4.40	> 2 h	< 4.30	4.18	< 4.30	CCCN(C)C(=O)OCc1c(-c2ccc(O[C@H]3CCC[C@H](C(=O)O)C3)c(C)n2)nnn1C [ADMILPARANT]	< 4.00

SMILES	pIC50 (Cytochrome P450 1A2)	half-life at 10 µM [1]	pIC50 [2]	fraction unbound at 24 h [3]	solubility [4]	logD [5]	half-life at 10 µM [6]	pIC50 (Cytochrome P450 2C8)	pIC50 (Cytochrome P450 2B6)	pIC50 (Cytochrome P450 2D6)	pIC50 (Cytochrome P450 3A4)	fraction unbound at 24 h [7]	pIC50 (Cytochrome P450 2C9)	half-life at 10 µM [8]	pIC50 (CYP3A4)	pIC50 [9]	pIC50 (CYP2C9)	pIC50 (Bile salt export pump)
Cc1noc(-c2ccc(-c3ccc(C4(C(=O)O)CC4)cc3)cc2)c1NC(=O)O[C@H](C)c1ccccc1 [BMS-986020]	< 4.30	1.27 h	6.77	0.002	< 1 µg/mL	3.6	1.38 h	5.46	< 4.30	< 4.30	< 4.30	0.006	5.26	1.52 h	< 4.30	4.66	< 4.30	5.32
